In US11083196B2, “Microbiocidal oxadiazole derivatives” (SYNGENTA PARTICIPATIONS AG, priority 2016, dated 2021):

Key:
[1] = tested on: Glomerella lagenarium (Colletotrichum lagenarium); experiment: Fungicidal activity against Glomerella lagenarium (Colletotrichum lagenarium), liquid culture / cucumber / preventative (anthracnose); format: cell-based; conditions: Colletotrichum orbiculare, liquid culture (PDB), growth inhibition measured photometrically 3-4 days after application, compared to untreated control
Experimental: Mycelia fragments or conidia suspensions of a fungus, prepared either freshly from liquid cultures of the fungus or from cryogenic storage, are directly mixed into nutrient broth. DMSO solutions of the test compound (max. 10 mg/ml) is diluted with 0.025% Tween20 by a factor of 50 and 10 μl of this solution is pipetted into a microtiter plate (96-well format). The nutrient broth containing the fungal spores/mycelia fragments is then added to give an end concentration of the tested compound. The test plates are incubated in the dark at 24° C. and 96% relative humidity. The inhibition of fungal growth is determined photometrically after 2 to 7 days, depending on the pathosystem, and percent antifungal activity relative to the untreated check is calculated. Conidia of the fungus from cryogenic storage are directly mixed into nutrient broth (PDB potato dextrose broth). After placing a (DMSO) solution of test compound into a microtiter plate (96-well format), the nutrient broth containing the fungal spores is added. The test plates are incubated at 24° C. and the inhibition of growth is measured photometrically 3-4 days after application.

[2] = tested on: Puccinia recondita f. sp. tritici; experiment: Fungicidal activity against Puccinia recondita f. sp. tritici / wheat / leaf disc preventative (brown rust); format: in vivo; conditions: foliar, 168 h, wheat leaf segments cv. Kanzler, inoculated 1 day after application, assessed 7-9 days after application, compared to untreated control
Experimental: Leaf disks or leaf segments of various plant species are cut from plants grown in a greenhouse. The cut leaf disks or segments are placed in multiwell plates (24-well format) onto water agar. The leaf disks are sprayed with a test solution before (preventative) or after (curative) inoculation. Compounds to be tested are prepared as DMSO solutions (max. 10 mg/ml) which are diluted to the appropriate concentration with 0.025% Tween20 just before spraying. The inoculated leaf disks or segments are incubated under defined conditions (temperature, relative humidity, light, etc.) according to the respective test system. A single evaluation of disease level is carried out 3 to 14 days after inoculation, depending on the pathosystem. Percent disease control relative to the untreated check leaf disks or segments is then calculated. Wheat leaf segments cv. Kanzler are placed on agar in multiwell plates (24-well format) and sprayed with the formulated test compound diluted in water. The leaf disks are inoculated with a spore suspension of the fungus 1 day after application. The inoculated leaf segments are incubated at 19° C. and 75% rh under a light regime of 12 h light/12 h darkness in a climate cabinet and the activity of a compound is assessed as percent disease control compared to untreated when an appropriate level of disease damage appears in untreated check leaf segments (7-9 days after application).

| SMILES | inhibition of growth at 20 ppm [1] | melting point | pest or weed control at 200 ppm [2] |
| --- | --- | --- | --- |
| FC(F)(F)c1nc(-c2ccc(C3CC(C4CCCCC4)=NO3)cc2)no1 (stereo not drawn) [Compound A-7, 3-[4-(3-cyclohexyl-4,5-dihydroisoxazol-5-yl)phenyl]-5-(trifluoromethyl)-1,2,4-oxadiazole] | ≥ 80% | 79 to 82 °C |  |
| FC(F)(F)C1=NOC(c2ccc(-c3noc(C(F)(F)F)n3)cc2)C1 (stereo not drawn) [Compound A-14, 5-(trifluoromethyl)-3-[4-[3-(trifluoromethyl)-4,5-dihydroisoxazol-5-yl]phenyl]-1,2,4-oxadiazole] | ≥ 80% | 65 to 69 °C |  |
| Cl.FC(F)(F)c1nc(-c2ccc(C3CCCN3)cc2)no1 (stereo not drawn) [Compound A-34, 3-(4-pyrrolidin-1-ium-2-ylphenyl)-5-(trifluoromethyl)-1,2,4-oxadiazole; chloride] |  | 154.4 to 158.5 °C | ≥ 80% |
| COC(=O)C1(c2ccc(-c3noc(C(F)(F)F)n3)cc2)C(C)=C(C#N)C(=O)N1C (stereo not drawn) [Compound A-41, methyl 4-cyano-1,3-dimethyl-5-oxo-2-[4-[5-(trifluoromethyl)-1,2,4-oxadiazol-3-yl]phenyl]pyrrole-2-carboxylate] | ≥ 80% |  |  |
| COc1ccccc1C1CC(c2ccc(-c3noc(C(F)(F)F)n3)cc2)=NO1 (stereo not drawn) [Compound A-48, 3-[4-[5-(2-methoxyphenyl)-4,5-dihydroisoxazol-3-yl]phenyl]-5-(trifluoromethyl)-1,2,4-oxadiazole] | ≥ 80% |  |  |
| FC(F)(F)c1nc(-c2ccc(C3CC(c4ccncc4)=NO3)cc2)no1 (stereo not drawn) [Compound A-49, 3-[4-[3-(4-pyridyl)-4,5-dihydroisoxazol-5-yl]phenyl]-5-(trifluoromethyl)-1,2,4-oxadiazole] | ≥ 80% |  |  |
| FC(F)(F)c1nc(-c2ccc(C3CC(c4ccccc4)=NO3)cc2)no1 (stereo not drawn) [Compound A-50, 3-[4-(3-phenyl-4,5-dihydroisoxazol-5-yl)phenyl]-5-(trifluoromethyl)-1,2,4-oxadiazole] |  | 139 to 142 °C |  |
| FC(F)(F)c1nc(-c2ccc(N3CCCCO3)cc2)no1 [Compound B-1, 2-[4-[5-(trifluoromethyl)-1,2,4-oxadiazol-3-yl]phenyl]oxazinane] |  | 94 to 96 °C |  |
| FC(F)(F)c1nc(-c2ccc(-c3cc(C4CC4)no3)cc2)no1 [Compound C-10, 3-[4-(3-cyclopropylisoxazol-5-yl)phenyl]-5-(trifluoromethyl)-1,2,4-oxadiazole] |  | 143 to 146 °C |  |
| FC(F)(F)c1nc(-c2ccc(-c3nc(-c4cccnc4)cs3)cc2)no1 [Compound C-12, 3-[4-[4-(3-pyridyl)thiazol-2-yl]phenyl]-5-(trifluoromethyl)-1,2,4-oxadiazole] |  | 142 to 143 °C |  |
| CCNC(=O)Nc1cccc(-c2ccc(-c3noc(C(F)(F)F)n3)cc2)n1 [Compound D-1, 1-ethyl-3-[6-[4-[5-(trifluoromethyl)-1,2,4-oxadiazol-3-yl]phenyl]-2-pyridyl]urea] |  | 200 to 205 °C |  |
| CCNC(=O)Nc1ccc(-c2ccc(-c3noc(C(F)(F)F)n3)cc2)cn1 [Compound D-2, 1-ethyl-3-[5-[4-[5-(trifluoromethyl)-1,2,4-oxadiazol-3-yl]phenyl]-2-pyridyl]urea] |  | 190 to 195 °C |  |
| CCNC(=O)Nc1cc(-c2ccc(-c3noc(C(F)(F)F)n3)cc2)ccn1 [Compound D-3, 1-ethyl-3-[4-[4-[5-(trifluoromethyl)-1,2,4-oxadiazol-3-yl]phenyl]-2-pyridyl]urea] |  | 180 to 185 °C |  |
| O=C(Nc1cccc(-c2ccc(-c3noc(C(F)(F)F)n3)cc2)n1)C(F)(F)F [Compound D-4, 2,2,2-trifluoro-N-[6-[4-[5-(trifluoromethyl)-1,2,4-oxadiazol-3-yl]phenyl]-2-pyridyl]acetamide] | ≥ 80% | 125 to 130 °C |  |
| Fc1cccc(-c2ccc(-c3noc(C(F)(F)F)n3)cc2)n1 [Compound D-5, 3-[4-(6-fluoro-2-pyridyl)phenyl]-5-(trifluoromethyl)-1,2,4-oxadiazole] | ≥ 80% | 75 to 80 °C |  |
| CCNc1cccc(-c2ccc(-c3noc(C(F)(F)F)n3)cc2)n1 [Compound D-8, N-ethyl-6-[4-[5-(trifluoromethyl)-1,2,4-oxadiazol-3-yl]phenyl]pyridin-2-amine] | ≥ 80% | 120 to 125 °C |  |

| SMILES | inhibition of growth at 20 ppm [1] | melting point | pest or weed control at 200 ppm [2] |
| --- | --- | --- | --- |
| CCNc1cc(-c2ccc(-c3noc(C(F)(F)F)n3)cc2)ccn1 [Compound D-9, N-ethyl-4-[4-[5-(trifluoromethyl)-1,2,4-oxadiazol-3-yl]phenyl]pyridin-2-amine] |  | 130 to 135 °C |  |
| O=C(C1CC1)N(C(=O)C1CC1)c1ccc(-c2ccc(-c3noc(C(F)(F)F)n3)cc2)cn1 [Compound D-10, N-(cyclopropanecarbonyl)-N-[5-[4-[5-(trifluoromethyl)-1,2,4-oxadiazol-3-yl]phenyl]-2-pyridyl]cyclopropane carboxamide] |  | 150 to 155 °C |  |
| O=C(Nc1ccc(-c2ccc(-c3noc(C(F)(F)F)n3)cc2)cn1)C1CC1 [Compound D-11, N-[5-[4-[5-(trifluoromethyl)-1,2,4-oxadiazol-3-yl]phenyl]-2-pyridyl]cyclopropane carboxamide] |  | 175 to 180 °C |  |
| O=C(Nc1ccc(-c2ccc(-c3noc(C(F)(F)F)n3)cc2)cn1)C(F)(F)F [Compound D-13, 2,2,2-trifluoro-N-[5-[4-[5-(trifluoromethyl)-1,2,4-oxadiazol-3-yl]phenyl]-2-pyridyl]acetamide] | ≥ 80% | 135 to 140 °C |  |
| O=C(Nc1cccc(-c2ccc(-c3noc(C(F)(F)F)n3)cc2)n1)C1CC1 [Compound D-14, N-[6-[4-[5-(trifluoromethyl)-1,2,4-oxadiazol-3-yl]phenyl]-2-pyridyl]cyclopropane carboxamide] |  | 125 to 130 °C |  |
| O=C(C1CC1)N(C(=O)C1CC1)c1cc(-c2ccc(-c3noc(C(F)(F)F)n3)cc2)ccn1 [Compound D-16, N-(cyclopropanecarbonyl)-N-[4-[4-[5-(trifluoromethyl)-1,2,4-oxadiazol-3-yl]phenyl]-2-pyridyl]cyclopropane carboxamide] |  | 120 to 125 °C |  |
| O=C(Nc1cc(-c2ccc(-c3noc(C(F)(F)F)n3)cc2)ccn1)C1CC1 [Compound D-17, N-[4-[4-(5-(triftuoromethyl)-1,2,4-oxadiazol-3-yl]phenyl]-2-pyridyl]cyclopropane carboxamide] |  | 140 to 145 °C |  |
| Nc1cc(-c2ccc(-c3noc(C(F)(F)F)n3)cc2)ccn1 [Compound D-18, 4-[4-[5-(trifluoromethyl)-1,2,4-oxadiazol-3-yl]phenyl]pyridin-2-amine] |  | 195 to 200 °C |  |
| CCNc1ccc(-c2ccc(-c3noc(C(F)(F)F)n3)cc2)cn1 [Compound D-20, N-ethyl-5-[4-[5-(trifluoromethyl)-1,2,4-oxadiazol-3-yl]phenyl]pyridin-2-amine] |  | 120 to 125 °C |  |
| FC(F)(F)c1nc(-c2ccc(-c3ccc(NC4CC4)nc3)cc2)no1 [Compound D-21, N-cyclopropyl-5-[4-[5-(trifluoromethyl)-1,2,4-oxadiazol-3-yl]phenyl]pyridin-2-amine] |  | 135 to 140 °C |  |
| FC(F)(F)c1nc(-c2ccc(-c3cccc(Cl)n3)cc2)no1 [Compound D-22, 3-[4-(6-chloro-2-pyridyl)phenyl]-5-(trifluoromethyl)-1,2,4-oxadiazole] |  | 115 to 120 °C |  |
| FC(F)(F)c1nc(-c2ccc(-c3ccc(N4CCOCC4)nc3)cc2)no1 [Compound D-23, 4-[5-[4-[5-(trifluoromethyl)-1,2,4-oxadiazol-3-yl]phenyl]-2-pyridyl]morpholine] |  | 150 to 155 °C |  |
| FC(F)(F)c1nc(-c2ccc(-c3cccc(N4CCOCC4)n3)cc2)no1 [Compound D-24, 4-[6-[4-[5-(trifluoromethyl)-1,2,4-oxadiazol-3-yl]phenyl]-2-pyridyl]morpholine] |  | 100 to 105 °C |  |
| FC(F)(F)c1nc(-c2ccc(-c3ccnc(N4CCOCC4)c3)cc2)no1 [Compound D-25, 4-[4-[4-[5-(trifluoromethyl)-1,2,4-oxadiazol-3-yl]phenyl]-2-pyridyl]morpholine] | ≥ 80% | 95 to 100 °C |  |
| FC(F)(F)c1nc(-c2ccc(-c3ccc(Cl)nc3)cc2)no1 [Compound D-27, 3-[4-(6-chloro-3-pyridyl)phenyl]-5-(trifluoromethyl)-1,2,4-oxadiazole] |  | 140 to 145 °C |  |
